Measurements from patent US11952365B2, “Anti-viral compounds” (Aligos Therapeutics, Inc., priority 2020, dated 2024).
pEC50, pIC50: −log10 of the molar value. Read-outs that look alike come from different tables or passages of the source.

Key:
3CLpro = 3CLpro (Severe acute respiratory syndrome coronavirus 2, UniProt P0DTD1); experiment: SARS-CoV-2 3CLpro protease assay (duplex, SAMDI-MS); format: biochemical; design: For the duplex assay, 3CLpro and HRV3C was added; conditions: 30 mins preincubation
[1] = tested on: SARS-CoV-2-GHB-03021/2020; experiment: microbe, parasite or virus in culture; format: cell-based; conditions: Severe acute respiratory syndrome coronavirus 2, Vero C1008, 96 h; read-out: VeroE6 + CP (EC50)
HRV3C = HRV3C (Human rhinovirus 14, UniProt P03303); experiment: HRV3C protease assay (duplex, SAMDI-MS); format: biochemical, HRV; conditions: 30 mins preincubation
In short: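 Compounds are preincubated 30 min with the protease pair before substrate addition, and cleavage proceeds 30 min at room temperature. Product peptides are measured by SAMDI-MS relative to internal standards, with IC50 obtained from a four-parameter fit.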

human cathepsin L = target: T1, human cathepsin L (Homo sapiens, UniProt P07711); experiment: cathepsin L assay; format: biochemical; conditions: 10 pM human cathepsin L, Z-FR-AMC 2 μM, class symbols
T1 construct: purchased R&D Systems
In short: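 Reactions began by adding 2 μM (final) Z-FR-AMC substrate to 10 pM human cathepsin L that had been preincubated 30 min with inhibitor. Kinetic AMC fluorescence at 355/460 nm over 30 min at 2-min intervals; four-parameter fitting gave IC50 values.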

[2] = Cytotoxicity plates without OC43 virus (cell-titer-glo); format: cell-based, human; conditions: human; HeLa cells without OC43 virus, class symbols
In short: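 Run as a virus-free counterpart of the OC43 cytopathic-effect assay. Attached HeLa cells received compound dilutions in EMEM with 2% FBS and were kept 6 days at 33 °C. Cell viability was then measured by CellTiter-Glo luminescence.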

[3] = tested on: SARS-CoV-2-GHB-03021/2020; experiment: SARS-CoV-2 Infection Model in Huh7 Cells; format: cell-based; conditions: Severe acute respiratory syndrome coronavirus 2, Huh-7, 96 h, SARS-CoV-2, day 4 p.i., MTS
in vitro [4] = conditions: human
[5] = tested on: human beta-coronavirus OC43; experiment: microbe, parasite or virus in culture; format: cell-based; conditions: Betacoronavirus 1, OC43, HeLa, 144 h, OC43 in HeLa cells, 6 days at 33° C., read-out: EC50
in vitro [6] = conditions: African green monkey, VeroE6 + CP (CC50), Vero E6-eGFP cells with CP-100356, absence of virus, MTS
[7] = 3CLpro, class symbols, read-out: SARS-Cov-2 IC50
[8] = HRV3C, class symbols, read-out: HRV IC50
[9] = HRV3C, bound, read-out: HRV IC50
[10] = 3CLpro, bound, read-out: SARS-Cov-2 IC50

Row | SMILES | pIC50 (3CLpro; [7]) | pEC50 [1] | pIC50 (HRV3C; HRV IC50, HRV3C, bound) | pIC50 (human cathepsin L) | CC50 at 6 days [2] [µM] | pEC50 ([3]; class symbols) | CC50 (in vitro [4]) [µM] | pEC50 ([5]; class symbols) | CC50 (in vitro [6]; numeric bounds) [µM] | pIC50 (HRV3C; [8]) | pEC50 ([3]; numeric bounds) | pEC50 ([5]; bound) | CC50 (in vitro [6]; class symbols) [µM] | pIC50 (3CLpro; SARS-Cov-2 IC50, 3CLpro, class symbols) | pIC50 (HRV3C; HRV IC50, HRV3C, class symbols) | pIC50 (HRV3C; [9]) | pIC50 (3CLpro; [10])
1 | COc1nccc2[nH]c(C(=O)N3C[C@@H]4CCC[C@@H]4[C@H]3C(=O)N[C@@H](C[C@@H]3CCNC3=O)C(=O)CO)cc12 [Compound 93, (1S,3aR,6aS)—N-[(2S)-4-hydroxy-3-oxo-1-[(3S)-2-oxopyrrolidin-3-yl]butan-2-yl]-2-{4-methoxy-1H-pyrrolo[3,2-c]pyridine-2-carbonyl}-hexahydro-1H-cyclopenta[c]pyrrole-1-carboxamide] | > 7.70 | 4.00 to 5.00 | < 5.00 | ≤ 5.00 | > 10 | 4.00 to 5.00 | > 100 | 5.00 to 6.00 | > 50 | – | – | – | – | – | – | – | –
2 | C=CC12CN(C(=O)c3cc4c(OC)cccc4[nH]3)C(C(=O)N[C@@H](C[C@@H]3CCNC3=O)C(=O)C(=O)NC3CC3)(C1)C2 [Compound 98] | 5.70 to 6.70 | 4.00 to 5.00 | – | ≤ 5.00 | > 10 | – | > 50 | – | – | 6.70 to 7.70 | < 4.30 | < 5.00 | > 10 | – | – | – | –
3 | COCCNC(=O)C(=O)[C@H](C[C@@H]1CCNC1=O)NC(=O)[C@@H]1[C@H]2CCC[C@H]2CN1C(=O)c1cc2c(OC)cccc2[nH]1 [Compound 100, (1S,3aR,6aS)-2-(4-methoxy-1H-indole-2-carbonyl)-N—((S)-4-((2-methoxyethyl)amino)-3,4-dioxo-1-((S)-2-oxopyrrolidin-3-yl)butan-2-yl)octahydrocyclopenta[c]pyrrole-1-carboxamide] | – | 4.00 to 5.00 | – | ≤ 5.00 | > 10 | 4.00 to 5.00 | > 50 | 5.00 to 6.00 | > 100 | – | – | – | – | 6.70 to 7.70 | 5.70 to 6.70 | – | –
4 | COc1cccc2[nH]c(C(=O)N3C[C@@H]4CCC[C@@H]4[C@H]3C(=O)N[C@@H](C[C@@H]3CCNC3=O)C(=O)C(=O)NCCOCc3ccccc3)cc12 [Compound 101] | > 7.70 | 5.00 to 6.00 | – | ≤ 5.00 | > 10 | 5.00 to 6.00 | > 50 | 6.00 to 7.00 | – | 5.70 to 6.70 | – | – | > 10 | – | – | – | –
5 | COc1cccc2[nH]c(C(=O)N3CCc4ccccc4[C@H]3C(=O)N[C@@H](C[C@@H]3CCNC3=O)C(=O)C(=O)NC3CC3)cc12 [Compound 102] | 5.70 to 6.70 | 5.00 to 6.00 | – | ≤ 5.00 | > 10 | 4.00 to 5.00 | > 100 | 5.00 to 6.00 | > 100 | – | – | – | – | – | – | < 5.00 | –
6 | COc1cccc2[nH]c(C(=O)N3C[C@@H]4CCC[C@@H]4[C@H]3C(=O)N[C@@H](C[C@@H]3CCNC3=O)C(=O)C(=O)N[C@H]3CCOC3)cc12 [Compound 103] | 6.70 to 7.70 | 4.00 to 5.00 | – | ≤ 5.00 | > 10 | 4.00 to 5.00 | > 100 | – | > 100 | 5.70 to 6.70 | – | < 5.00 | – | – | – | – | –
7 | COc1cccc2[nH]c(C(=O)N3C[C@@H]4CCC[C@@H]4[C@H]3C(=O)N[C@@H](C[C@@H]3CCNC3=O)C(=O)C(=O)NC3CCOCC3)cc12 [Compound 104] | 5.70 to 6.70 | 4.00 to 5.00 | – | ≤ 5.00 | > 10 | 4.00 to 5.00 | > 100 | – | > 100 | 5.70 to 6.70 | – | < 5.00 | – | – | – | – | –
8 | COc1cccc2[nH]c(C(=O)N3C[C@@H]4CCC[C@@H]4[C@H]3C(=O)N[C@@H](C[C@@H]3CCNC3=O)C(=O)C(=O)N[C@@H]3CCOC3)cc12 [Compound 105] | 6.70 to 7.70 | 4.00 to 5.00 | – | ≤ 5.00 | > 10 | 4.00 to 5.00 | > 100 | – | > 100 | 5.70 to 6.70 | – | < 5.00 | – | – | – | – | –
9 | COc1cccc2[nH]c(C(=O)N3CCc4ccccc4[C@H]3C(=O)N[C@@H](C[C@@H]3CCNC3=O)C(=O)CO)cc12 [Compound 106] | 5.70 to 6.70 | 4.00 to 5.00 | – | ≤ 5.00 | > 10 | 4.00 to 5.00 | > 10 | 5.00 to 6.00 | > 50 | 4.70 to 5.70 | – | – | – | – | – | – | –
10 | COc1cccc2[nH]c(C(=O)N3C[C@@H]4CCC[C@@H]4[C@H]3C(=O)N[C@@H](C[C@@H]3CCNC3=O)C(=O)C(=O)NCCO)cc12 [Compound 107, (1S, 3aR, 6aS)—N—((S)-4-((2-hydroxyethyl)amino)-3,4-dioxo-1-((S)-2-oxopyrrolidin-3-yl)butan-2-yl)-2-(4-methoxy-1H-indole-2-carbonyl)octahydrocyclopenta[c]pyrrole-1-carboxamide] | > 7.70 | 4.00 to 5.00 | – | ≤ 5.00 | > 10 | 4.00 to 5.00 | > 50 | – | > 100 | 5.70 to 6.70 | – | < 5.00 | – | – | – | – | –
11 | O=C1NCC[C@H]1C[C@H](NC(=O)[C@@H]1[C@H]2CCC[C@H]2CN1C(=O)c1cc2c3c(ccc2[nH]1)CCO3)C(=O)CO [Compound 108, (1S,3aR,6aS)-2-{2H,3H,6H-furo[2,3-e]indole-7-carbonyl}-N-[(2S)-4-hydroxy-3-oxo-1-[(3S)-2-oxopyrrolidin-3-yl]butan-2-yl]-hexahydro-1H-cyclopenta[c]pyrrole-1-carboxamide] | 6.70 to 7.70 | 5.00 to 6.00 | – | ≤ 5.00 | > 10 | 4.00 to 5.00 | > 50 | 6.00 to 7.00 | > 50 | – | – | – | – | – | – | < 5.00 | –
12 | COc1cccc2[nH]c(C(=O)N3C[C@@H]4CCC[C@@H]4[C@H]3C(=O)N[C@@H](C[C@@H]3CCNC3=O)C(=O)C(=O)N(C)C)cc12 [Compound 110] | – | < 4.30 | – | ≤ 5.00 | > 10 | – | > 50 | – | > 50 | – | < 4.30 | < 5.00 | – | – | – | < 5.00 | < 5.00
13 | O=C(NCc1ccccc1)C(=O)[C@H](Cc1cccnc1)NC(=O)[C@@H]1CC2(CC2)CN1C(=O)c1cc2ccccc2[nH]1 [Compound 111, (S)—N—((S)-4-(benzylamino)-3,4-dioxo-1-(pyridin-3-yl)butan-2-yl)-5-(1H-indole-2-carbonyl)-5-azaspiro[2.4]heptane-6-carboxamide] | – | < 4.00 | – | > 7.00 | > 10 | 5.00 to 6.00 | > 10 | 4.00 to 5.00 | > 100 | – | – | – | – | – | – | < 5.00 | < 5.00
14 | COc1cccc2[nH]c(C(=O)N3C[C@@H]4CCC[C@@H]4[C@H]3C(=O)N[C@@H](CN3CC[C@H](O)C3=O)C(=O)C(=O)NC3CC3)cc12 [Compound 115, (1S,3aR,6aS)—N—((S)-4-(cyclopropylamino)-1-((S)-3-hydroxy-2-oxopyrrolidin-1-yl)-3,4-dioxobutan-2-yl)-2-(4-methoxy-1H-indole-2-carbonyl)octahydrocyclopenta[c]pyrrole-1-carboxamide] | 4.70 to 5.70 | < 4.30 | – | ≤ 5.00 | > 10 | – | > 10 | – | > 50 | – | < 4.30 | < 5.00 | – | – | – | < 5.00 | –
15 | O=C1NCC[C@H]1C[C@H](NC(=O)[C@@H]1[C@H]2CCC[C@H]2CN1C(=O)c1cc2c(Cl)ccc(C(F)(F)F)c2[nH]1)C(=O)CO [Compound 117, (1S,3aR,6aS)-2-[4-chloro-7-(trifluoromethyl)-1H-indole-2-carbonyl]-N-[(2S)-4-hydroxy-3-oxo-1-[(3S)-2-oxopyrrolidin-3-yl]butan-2-yl]-hexahydro-1H-cyclopenta[c]pyrrole-1-carboxamide] | 6.70 to 7.70 | > 6.00 | – | ≤ 5.00 | > 10 | > 6.00 | > 50 | 6.00 to 7.00 | > 50 | – | – | – | – | – | – | < 5.00 | –
16 | COc1cccc2[nH]c(C(=O)N3C[C@@H]4CCC[C@@H]4[C@H]3C(=O)N[C@@H](CN3CCCNC3=O)C(=O)C(=O)NC3CC3)cc12 [Compound 118] | 4.70 to 5.70 | < 4.30 | – | ≤ 5.00 | > 10 | – | > 10 | – | > 50 | – | < 4.30 | < 5.00 | – | – | – | < 5.00 | –
